Experimental data published in patent US8192962B2, “Processes for detecting toxic substances” (Daikin Industries, Ltd., priority 2001, dated 2012).

Test system: Stress protein genes
Test: DNA chip mRNA expression in yeast, stress protein genes (Table 6)
Format: cell-based, Saccharomyces cerevisiae S288C
Method in brief: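 First, S288C yeast grown in YPD at 25° C. are dosed in log phase with one toxicant (growth-inhibiting, not lethal) for 2 h. Next, total RNA is extracted and poly(A) mRNA isolated and reverse-transcribed with Cy3/Cy5-dUTP. Finally, whole-genome chip fluorescence is read relative to unexposed cells.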

Measured: The level of expressed mRNA in the presence of chemical substance/The level of expressed mRNA in the absence of chemical substance

manganese ethylenebis(dithiocarbamate) [(8)]
0.5: yeast gene YOR010C
1.2: yeast gene YCR060W | yeast gene YDR098C | yeast gene YGL181W | yeast gene YNL160W | yeast gene YPL106C | yeast gene YPL223C | yeast gene YPL240C | yeast gene YPR005C
0.6: yeast gene YBR126C | yeast gene YDR293C
0.9: yeast gene YAL005C | yeast gene YBR169C | yeast gene YDR436W | yeast gene YER103W | yeast gene YJL128C | yeast gene YKL210W | yeast gene YKR053C | yeast gene YLR006C | yeast gene YLR109W | yeast gene YNL241C | yeast gene YOR027W
3.4: yeast gene YFL014W
1.5: yeast gene YCR083W | yeast gene YFR052W | yeast gene YHR030C
1.0: yeast gene YDR033W | yeast gene YER057C | yeast gene YGL115W | yeast gene YHL046C | yeast gene YHR057C | yeast gene YNR076W | yeast gene YOL064C | yeast gene YOR208W | yeast gene YPR026W
1.6: yeast gene YBL093C | yeast gene YDR513W
0.4: yeast gene YHL028W
1.7: yeast gene YER042W
2.1: yeast gene YBR054W | yeast gene YBR072W
1.9: yeast gene YDR258C | yeast gene YKL161C | yeast gene YML007W
1.1: yeast gene YAL015C | yeast gene YBR044C | yeast gene YBR067C | yeast gene YDL025C | yeast gene YEL039C | yeast gene YHR104W | yeast gene YLL039C | yeast gene YPL140C
5.8: yeast gene YLL060C
1.4: yeast gene YCL035C | yeast gene YDR155C | yeast gene YDR519W | yeast gene YLL026W | yeast gene YNL064C | yeast gene YPL059W
1.3: yeast gene YIR037W | yeast gene YIR038C | yeast gene YML070W | yeast gene YMR021C | yeast gene YPL194W
0.8: yeast gene YBL075C | yeast gene YCR021C | yeast gene YDL022W | yeast gene YDR077W | yeast gene YGL073W | yeast gene YGR088W | yeast gene YJL159W | yeast gene YJR045C | yeast gene YJR090C | yeast gene YKL163W | yeast gene YKL164C | yeast gene YLR259C | yeast gene YMR186W | yeast gene YOL161C | yeast gene YOR008C
2.3: yeast gene YMR173W
0.7: yeast gene YEL030W | yeast gene YER125W | yeast gene YFL016C | yeast gene YFL020C | yeast gene YIL011W | yeast gene YIL033C | yeast gene YJL158C | yeast gene YJL165C | yeast gene YLL024C | yeast gene YOR009W
